This passage reports melting point, Ki and inhibition results from patent US20140163012A1, “PYRIDO-/AZEPINO-BENZOFURAN AND PYRIDO-/AZEPINO-BENZOTHIOPHENE MCH-1 ANTAGONISTS, METHODS OF MAKING, AND USE THEREOF” (Albany Molecular Research, Inc., priority 2012, published 2014).

pKi: −log10 of the molar value. Structures can show the parent of a compound that is named as a salt. Bounds are passed on as bounds.

One data set concerns the target human MCH-1 receptor (Homo sapiens, UniProt Q99705). Put plainly: Binding assay for human melanin-concentrating hormone (MCH-1) receptor, radioligand displacement on CHO-K1 cell membranes. The settings on record: for inhibition at 1 µM: read-out: MCH1 % inhibition @ 1 uM. Background: Displacement assays read how much labelled ligand stays bound in the presence of the test substance.

human MCH-1 receptor, sequence (Q99705 whole entry): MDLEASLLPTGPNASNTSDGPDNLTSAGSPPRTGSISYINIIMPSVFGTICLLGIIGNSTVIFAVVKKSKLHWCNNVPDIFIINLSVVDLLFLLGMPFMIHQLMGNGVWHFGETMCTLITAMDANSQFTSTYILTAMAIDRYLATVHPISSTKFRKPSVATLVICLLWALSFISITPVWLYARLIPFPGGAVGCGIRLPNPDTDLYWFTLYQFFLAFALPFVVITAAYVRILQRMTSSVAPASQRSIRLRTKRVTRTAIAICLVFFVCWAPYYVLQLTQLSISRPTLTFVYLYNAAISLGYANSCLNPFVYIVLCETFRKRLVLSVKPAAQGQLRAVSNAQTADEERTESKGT

As to `Cl.O=c1cc(OCc2ccc(F)cn2)cnn1-c1ccc2c3c(oc2c1)CCNC3` [Example 50, 5-((5-Fluoropyridin-2-yl)methoxy)-2-(1,2,3,4-tetrahydrobenzofuro[3,2-c]pyridin-7-yl)pyridazin-3(2H)-one hydrochloride], the melting point (usually the temperature of the solid-liquid transition) is 268 to 269 °C. Moreover, the pKi (usually −log10 of the Ki, conventionally taken in molar units) on human MCH-1 receptor is 7.44. Turning to `Cc1ccc(COc2ccn(-c3ccc4c5c(oc4c3)CCNC5)c(=O)c2)cn1.Cl` [Example 51, 4-((6-Methylpyridin-3-yl)methoxy)-1-(1,2,3,4-tetrahydrobenzofuro[3,2-c]pyridin-7-yl)pyridin-2(1H)-one hydrochloride], the melting point lay in the range of 227 to 233 °C. In addition, the pKi at human MCH-1 receptor is 6.84. The molecule `Cl.O=c1cc(OCc2ccc(C(F)(F)F)nc2)ccn1-c1ccc2c3c(oc2c1)CCNC3` [Example 52, 1-(1,2,3,4-Tetrahydrobenzofuro[3,2-c]pyridin-7-yl)-4-((6-(trifluoromethyl)pyridin-3-yl)methoxy)pyridin-2(1H)-one hydrochloride] registered a melting point of 278 to 280 °C. At human MCH-1 receptor, this molecule had a negative-log Ki (pKi) of 7.14.

`Cl.O=c1cc(OCc2ccccc2)ccn1-c1ccc2sc3c(c2c1)CCNC3` [Example 65, 4-Benzyloxy-1-(1,2,3,4-tetrahydrobenzo[4,5]thieno[2,3-c]pyridin-6-yl)pyridin-2(1H)-one hydrochloride]: the melting point was determined as 170 °C. This molecule also gave a pKi on human MCH-1 receptor of 6.44.

The molecule `Cl.O=c1cc(OCc2ccc(F)cn2)ccn1-c1ccc2sc3c(c2c1)CCNC3` [Example 66, 4-((5-Fluoropyridin-2-yl)methoxy)-1-(1,2,3,4-tetrahydrobenzo[4,5]thieno[2,3-c]pyridin-6-yl)pyridin-2(1H)-one hydrochloride] came in with a melting point of 278 to 280 °C. Further, at human MCH-1 receptor, the inhibition (commonly the percentage by which the read-out fell short of the control) at 1 µM worked out at 34%. Consider `Cl.O=c1cc(OCc2ccccc2)ccn1-c1ccc2sc3c(c2c1)CNCC3` [Example 67, 4-Benzyloxy-1-(1,2,3,4-tetrahydrobenzo[4,5]thieno[3,2-c]pyridin-8-yl)pyridin-2(1H)-one hydrochloride], for which the melting point was 245 to 247 °C. On human MCH-1 receptor, the inhibition at 1 µM came to 31%. Turning to `Cl.O=c1cc(OCc2ccc(F)cn2)ccn1-c1ccc2sc3c(c2c1)CNCC3` [Example 68, 4-(5-Fluoropyridin-2-yl)methoxy-1-(1,2,3,4-tetrahydrobenzo[4,5]thieno[3,2-c]pyridin-8-yl)pyridin-2(1H)-one hydrochloride], the melting point is 165 to 167 °C. Moreover, the inhibition at 1 µM at human MCH-1 receptor was 13%. Regarding `Cl.O=c1cc(OCc2ccc(F)cn2)ccn1-c1ccc2sc3c(c2c1)CCNCC3` [Example 69, 4-(5-Fluoropyridin-2-yl)methoxy-1-(2,3,4,5-tetrahydro-1H-benzo[4,5]thieno[2,3-d]azepin-9-yl)pyridin-2(1H)-one hydrochloride], the melting point was 228 to 230 °C. In addition, the inhibition at 1 µM at human MCH-1 receptor was 69%. Taken in the same sequence, the figures for `Cl.O=C1CN(CCc2ccc(F)cn2)CCN1c1ccc2c3c(oc2c1)CCNC3` [Example 70, 4-(2-(5-Fluoropyridin-2-yl)ethyl)-1-(1,2,3,4-tetrahydrobenzofuro[3,2-c]pyridin-7-yl)piperazin-2-one hydrochloride] were 203 to 209 °C and 66%. In the case of `Cl.O=c1cc(-c2ccc(C(F)(F)F)cc2)ccn1-c1ccc2c3c(oc2c1)CCNC3` [Example 71, 1-(1,2,3,4-Tetrahydrobenzofuro[3,2-c]pyridin-7-yl)-4-(4-(trifluoromethyl)phenyl)pyridin-2(1H)-one hydrochloride], the melting point was greater than 300 °C. On human MCH-1 receptor, the negative-log Ki (pKi) was 8.12. The molecule `Cl.O=c1cc(-c2ccc(C(F)(F)F)nn2)ccn1-c1ccc2c3c(oc2c1)CCNC3` [Example 88, 1-(1,2,3,4-Tetrahydrobenzofuro[3,2-c]pyridin-7-yl)-4-(6-(trifluoromethyl)pyridazin-3-yl)pyridin-2(1H)-one hydrochloride] gave a melting point greater than 300 °C. Besides, at human MCH-1 receptor, the inhibition at 1 µM was 41%. Molecule `Cl.O=C1CN(CCc2ccc(Cl)cn2)CCN1c1ccc2c3c(oc2c1)CCNC3` [Example 91, 4-(2-(5-Chloropyridin-2-yl)ethyl)-1-(1,2,3,4-tetrahydrobenzofuro[3,2-c]pyridin-7-yl)piperazin-2-one hydrochloride] had a melting point of 220 to 223 °C. Moreover, on human MCH-1 receptor, the pKi was 7.08.

Consider `Cl.O=c1nc(CCc2ccc(Cl)cn2)ccn1-c1ccc2c3c(oc2c1)CCNC3` [Example 101, 4-(2-(5-Chloropyridin-2-yl)ethyl)-1-(1,2,3,4-tetrahydrobenzofuro[3,2-c]pyridin-7-yl)pyrimidin-2(1H)-one hydrochloride], for which the melting point was 155 to 160 °C. For the same molecule, the pKi on human MCH-1 receptor was 7.70. On to `Cl.O=c1cc(CCc2ccc(F)cn2)ccn1-c1ccc2c3c(oc2c1)CCNC3` [Example 102, 4-(2-(5-Fluoropyridin-2-yl)ethyl)-1-(1,2,3,4-tetrahydrobenzofuro[3,2-c]pyridin-7-yl)pyridin-2(1H)-one hydrochloride], for which the melting point was in the range of 165 to 169 °C. Further, the negative-log Ki (pKi) at human MCH-1 receptor is 7.54. Taken in the same sequence, the figures for `Cl.O=c1cc(CCc2ccccc2)ccn1-c1ccc2c3c(oc2c1)CCNC3` [Example 104, 4-Phenethyl-1-(1,2,3,4-tetrahydrobenzofuro[3,2-c]pyridin-7-yl)pyridin-2(1H)-one hydrochloride] were 283 to 289 °C and 8.18.

`O=c1cc(OCc2ccc(F)cn2)ccn1-c1ccc2c3c(sc2c1)CCCNC3` [Example 124, 4-((5-Fluoropyridin-2-yl)methoxy)-1-(2,3,4,5-tetrahydro-1H-benzothieno[3,2-c]azepin-8-yl)pyridin-2(1H)-one hydrochloride] showed a pKi on human MCH-1 receptor of 8.43.

Molecule `O=c1cc(CCc2ccc(Cl)cn2)ccn1-c1ccc2c3c(sc2c1)CNCC3` [Example 125, 4-((5-Chloropyridin-2-yl)ethyl)-1-(1,2,3,4-tetrahydrobenzothieno[2,3-c]pyridin-7-yl)pyridin-2(1H)-one hydrochloride] had a negative-log Ki (pKi) on human MCH-1 receptor of 8.00. `O=c1cc(CCc2ccc(F)cn2)ccn1-c1ccc2c3c(sc2c1)CNCC3` [Example 126, 4-((5-Fluoropyridin-2-yl)ethyl)-1-(1,2,3,4-tetrahydrobenzothieno[2,3-c]pyridin-7-yl)pyridin-2(1H)-one hydrochloride]: the pKi on human MCH-1 receptor was 7.70. As to `O=c1cc(CCc2ccccc2)ccn1-c1ccc2c3c(sc2c1)CNCC3` [Example 127, 4-Phenethyl-1-(1,2,3,4-tetrahydrobenzothieno[2,3-c]pyridin-7-yl)pyridin-2(1H)-one hydrochloride], the pKi on human MCH-1 receptor is 8.21.

Turning to `O=c1cc(OCc2ccccc2)ccn1-c1ccc2c3c(oc2c1)CC1CCC3N1` (stereo not drawn) [Example 128, 4-(Benzyloxy)-1-(7,8,9,10-tetrahydro-6H-7,10-epiminocyclohepta[b]benzofuran-3-yl)pyridin-2(1H)-one hydrochloride], the pKi at human MCH-1 receptor was 7.96. `O=c1cc(OCc2ccc(F)cn2)ccn1-c1ccc2c3c(oc2c1)CC1CCC3N1` (stereo not drawn) [Example 129, 4-((5-Fluoropyridin-2-yl)methoxy)-1-(7,8,9,10-tetrahydro-6H-7,10-epiminocyclohepta[b]benzofuran-3-yl)pyridin-2(1H)-one hydrochloride]: the pKi at human MCH-1 receptor is 7.85.
